Measurements taken from patent US20240009161A1, “[…] MATERIAL WITH LOW pH AND LOW TOXICITY ACTIVE AGAINST AT LEAST ONE PATHOGEN FOR ADDRESSING PATIENTS WITH RESPIRATORY […]” (priority 2020, published 2024).
Values joined by “and” are separate entries in the source; they are usually repeats but may differ in a detail not shown here. Equal entries are not always repeated. Where two headings read alike, the source gives them in different places.

What was measured:
[1] = system: Streptococcus pneumoniae ATCC 6303; assay: ASTM E2315 suspension test, 1 minute; format: cell-based
Procedure: (§1) In order to assess the antimicrobial efficacy of various acid compounds and combinations, a variety of potential pharmaceutically acceptable fluid formulations within the scope of the present disclosure were evaluated to determine antimicrobial efficacy against common viral, bacterial, and fungal pathogens. These studies were all performed by an ISO 17025 Accredited and GLP Compliant Laboratory. These in vitro tests followed ASTM (American Society of Testing and Materials) standard suspension tests for antimicrobial efficacy. The tests were all performed with a 1-minute contact time based on the pharmacokinetics previously described.
Purpose: Streptococcus pneumoniae is a leading cause of bacterial pneumonia, meningitis, and sepsis, and is estimated to have caused approximately 335,000 (240,000-460,000) deaths in children aged <5 years in 2015 globally. Due to the prevalence and mortality of S. pneumoniae a wide range of acid formulations were tested against this common pathogen to determine what variables may affect efficacy. The purpose of the tests performed was to determine what pH is required to achieve 1 log (90%) efficacy in 1 minute against S. pneumoniae using various acid formulations.

[2] = system: Aspergillus fumigatus ATCC 36607; assay: ASTM E2315 suspension test, 1 minute; format: cell-based; conditions: 1.9 pH
[3] = system: Pseudomonas aeruginosa ATCC BAA-2801; assay: ASTM E2315 suspension test, 1 minute; format: cell-based
Procedure: as §1
(§2) Purpose: The first set of in vitro efficacy tests were performed on antibiotic resistant Staphylococcus aureus and Pseudomonas aeruginosa bacteria. These two antibiotic resistant bacterial strains were initially selected since these pathogens represent two broad classes of bacteria. S. aureus is gram-positive and P. aeruginosa is gram-negative. Antibiotic resistant strains of each pathogen are considered some of the deadliest respiratory bacterial strains with limited therapeutic options.
(§3) The as-received pH measurements were of the test materials as received by the test laboratory. The ASTM antimicrobial test procedures mix 9 parts test material with 1 part medium containing the pathogen. The as-applied pH is the pH after mixing, which is what is seen by the pathogen. After the test duration, 1 minute for these tests, the test material is neutralized, and the pathogens are counted and compared with the control.

Rhinovirus 37 = assay: ASTM E1052 virus suspension test, 1 minute; format: cell-based; conditions: 1.66 and 1.90 pH
[4] = system: Rhizopus microspores ATCC 52807; assay: ASTM E2315 suspension test, 1 minute; format: cell-based; conditions: 1.9 pH
[5] = system: Influenza A (H1N1) A/PR/8/34 Strain; format: cell-based, Influenza A virus
[6] = system: Klebsiella pneumoniae ATCC 4532; assay: ASTM E2315 suspension test, 1 minute; format: cell-based; conditions: 1.99 pH
[7] = system: Mycobacterium terrae ATCC 15755; format: cell-based
[8] = system: Haemophilus influenza ATCC 8149; assay: ASTM E2315 suspension test, 1 minute; format: cell-based; conditions: 1.99 pH
Procedure: as §1
Three other bacteria and three fungi were selected that represent a wide variety of respiratory pathogens.

[9] = system: Human Coronavirus, 229E strain, ATCC VR-740; assay: ASTM E1052 virus suspension test, 1 minute; format: cell-based
Procedure: A 1-minute suspension test is considered to be the most representative in vitro test to simulate in vivo efficacy based on previously discussed pharmacokinetics. A 1 log or 90% efficacy target has been chosen with consideration of patient recovery, while minimizing the effective concentration and potential patient risk. In one contemplated method of administration as described in the present disclosure, the material is administered to the patient in need thereof by inhalation by nebulizer. It is contemplated that patients using an inhalation method such as nebulizer administration would be inhaling the therapeutic material comprising a pharmaceutically acceptable fluid as disclosed herein continuously for several minutes in a specific concentration either continuously or in a series of discrete dose intervals with potentially multiple times per day potentially over multiple days. As a result, any reduction in pathogen load in vitro may be compounded in vivo to achieve higher efficacy over the treatment period.
as §1
Purpose: COVID-19 is a global pandemic caused by the SARS-CoV-2 coronavirus. The purpose of these studies was to determine the efficacy of several inorganic acids against the human coronavirus and ascertain the pH required to achieve 1 log efficacy in 1 minute.
SARS-CoV-2 is a beta coronavirus. An alpha coronavirus was used in these studies since this was the closest virus available at the test laboratory. The alpha coronavirus is considered to be representative for efficacy on SARS-CoV-2 for purposes of this investigation.
Due to the larger increase in pH, none of the acids achieved the 1 log efficacy goal.
The EMEM includes live MRC-5 cells which have significant buffer capacity.

L929 mouse cell line = conditions: for Cytotoxicity Grade: mouse
[10] = system: Staphylococcus aureus ATCC (MRSA) 33591; assay: ASTM E2315 suspension test, 1 minute; format: cell-based; conditions: pH 3.1, one minute
Procedure: as §1, §2, §3

SARS-CoV-2 virus = conditions: hard surfaces, 1 minute, 4% concentration, 2.68 pH; cited from earlier work

## Polyphosphoric acid
[1]
  Effective pH to meet the 1 log efficacy target: approximately 1.85 pH

## Br [hydrobromic acid, Hydrobromic acid]
[1]
  Effective pH to meet the 1 log efficacy target: 1.90 pH

## O=S(=O)(O)O [sulfuric acid, Sulfuric acid]
[2]
  Effectiveness: effective
[3]; 1.9 pH, antibiotic resistant strain
  Effectiveness: effective
Rhinovirus 37
  Log efficacy: > 2 log
[1]
  Effective pH to meet the 1 log efficacy target: 1.91 pH
[1]; 1.9 pH
  Effectiveness: effective
[4]
  Effectiveness: effective
[5]
  Log efficacy: > 4 log
[6]
  Effectiveness: highly effective
[7]
  Efficacy %: 25% and 24.56%
  Efficacy log: 0.12 log
[8]
  Effectiveness: highly effective
[9]
  Efficacy %: 82.11%
  Efficacy at inactivating human coronavirus: provides efficacy at inactivating and/or reducing concentration of human coronavirus
  Efficacy log: 0.75 log
  In vitro efficacy on human coronavirus: demonstrated in vitro efficacy on human coronavirus
  In vitro suspension efficacy, %: 82.11%
  In vitro suspension efficacy, log: 0.75 log
L929 mouse cell line
  Test Results: No biological reactivity
L929 mouse cell line; 0.12 %
  Cytotoxicity Grade: Grade 0
L929 mouse cell line; 0.18 %
  Cytotoxicity Grade: Grade 0
L929 mouse cell line; 0.3 %
  Cytotoxicity Grade: Grade 0
L929 mouse cell line; […]
  Cytotoxicity Grade: Grade 0

## Albuterol sulfate [reference compound]
[10]
  Efficacy as 1 log decrease in pathogen count: no efficacy
[3]; 3.1 pH
  Effectiveness vs 1 log target: no efficacy

## CC(=O)O [acetic acid, Acetic acid]
SARS-CoV-2 virus
  Log efficacy: 4 log

## Cl [hydrochloric acid, Hydrochloric acid]
[1]
  Effective pH to meet the 1 log efficacy target: approximately 1.87 pH
[1]; 1.98 pH
  Efficacy: no little efficacy
